# Measured values reported in PubChem BioAssay (NCI).
#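 Five concentrations, 48 hours, 96-well plates. GI50 = concentration required for 50% inhibition of growth. TGI is the concentration that stops growth completely.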
# Tests used:
# Assay in all cases: inhibition of tumour cell growth, NCI panel, 48 h
# TK-10 renal = test system: TK-10 renal
# SW-620 colon = test system: SW-620 colon
# HCT-116 colon = test system: HCT-116 colon
# ACHN renal = test system: ACHN renal
# M14 melanoma = test system: M14 melanoma
# SK-MEL-2 melanoma = test system: SK-MEL-2 melanoma
# RXF 393 renal = test system: RXF 393 renal
# OVCAR-5 ovarian = test system: OVCAR-5 ovarian
# COLO 205 colon = test system: COLO 205 colon
# MDA-MB-435 = test system: MDA-MB-435
# HOP-62 NSCLC = test system: HOP-62 NSCLC
# 786-0 renal = test system: 786-0 renal
# SK-MEL-28 melanoma = test system: SK-MEL-28 melanoma
# NCI-H23 lung = test system: NCI-H23 lung
# DU-145 prostate = test system: DU-145 prostate
# U251 CNS = test system: U251 CNS
# OVCAR-8 ovarian = test system: OVCAR-8 ovarian
# T-47D breast = test system: T-47D breast
# NCI/ADR-RES ovarian = test system: NCI/ADR-RES ovarian
# CAKI-1 renal = test system: CAKI-1 renal
# LOX IMVI melanoma = test system: LOX IMVI melanoma
# NCI-H226 lung = test system: NCI-H226 lung
# MDA-MB-468 breast = test system: MDA-MB-468 breast
# MCF7 breast = test system: MCF7 breast
# SF-268 CNS = test system: SF-268 CNS
# IGROV1 ovarian = test system: IGROV1 ovarian
# SNB-75 CNS = test system: SNB-75 CNS
# BT-549 breast = test system: BT-549 breast
# OVCAR-3 ovarian = test system: OVCAR-3 ovarian
# MDA-MB-231 breast = test system: MDA-MB-231 breast
# RPMI-8226 leukemia = test system: RPMI-8226 leukemia
# UACC-62 melanoma = test system: UACC-62 melanoma
# A498 renal = test system: A498 renal
# OVCAR-4 ovarian = test system: OVCAR-4 ovarian
# UACC-257 melanoma = test system: UACC-257 melanoma
# KM12 colon = test system: KM12 colon
# HS 578T breast = test system: HS 578T breast
# HOP-92 NSCLC = test system: HOP-92 NSCLC
# EKVX NSCLC = test system: EKVX NSCLC
# HT29 colon = test system: HT29 colon
# SF-539 CNS = test system: SF-539 CNS
# NCI-H460 lung = test system: NCI-H460 lung
# K-562 leukemia = test system: K-562 leukemia
# SK-OV-3 ovarian = test system: SK-OV-3 ovarian
# MALME-3M melanoma = test system: MALME-3M melanoma
# SF-295 CNS = test system: SF-295 CNS
# CCRF-CEM leukemia = test system: CCRF-CEM leukemia
# HCC-2998 colon = test system: HCC-2998 colon
# NCI-H522 lung = test system: NCI-H522 lung
# SR leukemia = test system: SR leukemia
# A549 NSCLC = test system: A549 NSCLC
# SK-MEL-5 melanoma = test system: SK-MEL-5 melanoma
# HL-60(TB) leukemia = test system: HL-60(TB) leukemia
# UO-31 renal = test system: UO-31 renal
# SNB-19 CNS = test system: SNB-19 CNS
# PC-3 prostate = test system: PC-3 prostate
# HCT-15 colon = test system: HCT-15 colon
# MOLT-4 leukemia = test system: MOLT-4 leukemia
# SN12C renal = test system: SN12C renal
smiles,measurement,setting,value
CCOc1ccc2ncc(C#Cc3cncc(C(=O)Nc4ccc(CN5CCN(C)CC5)c(C(F)(F)F)c4)c3)n2n1,GI50,TK-10 renal,8.09 µM
same,TGI,TK-10 renal,23.3 µM
same,GI50,SW-620 colon,0.287 µM
same,TGI,SW-620 colon,2.3 µM
same,GI50,HCT-116 colon,0.225 µM
same,TGI,HCT-116 colon,1.56 µM
same,GI50,ACHN renal,0.561 µM
same,TGI,ACHN renal,15 µM
same,GI50,M14 melanoma,0.416 µM
same,TGI,M14 melanoma,1.79 µM
same,GI50,SK-MEL-2 melanoma,1.34 µM
same,TGI,SK-MEL-2 melanoma,11.9 µM
same,GI50,RXF 393 renal,0.89 µM
same,TGI,RXF 393 renal,2.34 µM
same,GI50,OVCAR-5 ovarian,0.802 µM
same,TGI,OVCAR-5 ovarian,12 µM
same,GI50,COLO 205 colon,0.272 µM
same,TGI,COLO 205 colon,0.883 µM
same,GI50,MDA-MB-435,0.592 µM
same,TGI,MDA-MB-435,5.15 µM
same,GI50,HOP-62 NSCLC,1.25 µM
same,TGI,HOP-62 NSCLC,14.4 µM
same,GI50,786-0 renal,1.56 µM
same,TGI,786-0 renal,2.95 µM
same,GI50,SK-MEL-28 melanoma,1.3 µM
same,TGI,SK-MEL-28 melanoma,2.66 µM
same,GI50,NCI-H23 lung,0.393 µM
same,TGI,NCI-H23 lung,4.9 µM
same,GI50,DU-145 prostate,1.1 µM
same,TGI,DU-145 prostate,17.3 µM
same,GI50,U251 CNS,11.7 µM
same,TGI,U251 CNS,30.9 µM
same,GI50,OVCAR-8 ovarian,3.21 µM
same,TGI,OVCAR-8 ovarian,10.6 µM
same,GI50,T-47D breast,17.8 µM
same,TGI,T-47D breast,> 70.5 µM
same,GI50,NCI/ADR-RES ovarian,1.16 µM
same,TGI,NCI/ADR-RES ovarian,2.66 µM
same,GI50,CAKI-1 renal,0.79 µM
same,TGI,CAKI-1 renal,13.2 µM
same,GI50,LOX IMVI melanoma,0.608 µM
same,TGI,LOX IMVI melanoma,1.94 µM
same,GI50,NCI-H226 lung,0.151 µM
same,TGI,NCI-H226 lung,1.85 µM
same,GI50,MDA-MB-468 breast,1.66 µM
same,TGI,MDA-MB-468 breast,11.1 µM
same,GI50,MCF7 breast,0.208 µM
same,TGI,MCF7 breast,1.74 µM
same,GI50,SF-268 CNS,1.92 µM
same,TGI,SF-268 CNS,17.6 µM
same,GI50,IGROV1 ovarian,2.18 µM
same,TGI,IGROV1 ovarian,19.1 µM
same,GI50,SNB-75 CNS,3.31 µM
same,TGI,SNB-75 CNS,16.3 µM
same,GI50,BT-549 breast,1.79 µM
same,TGI,BT-549 breast,12.4 µM
same,GI50,OVCAR-3 ovarian,4.5 µM
same,TGI,OVCAR-3 ovarian,24.6 µM
same,GI50,MDA-MB-231 breast,0.362 µM
same,TGI,MDA-MB-231 breast,2.87 µM
same,GI50,RPMI-8226 leukemia,1.06 µM
same,TGI,RPMI-8226 leukemia,4.38 µM
same,GI50,UACC-62 melanoma,9.92 µM
same,TGI,UACC-62 melanoma,24.5 µM
same,GI50,A498 renal,6.96 µM
same,TGI,A498 renal,24.3 µM
same,GI50,OVCAR-4 ovarian,3.56 µM
same,TGI,OVCAR-4 ovarian,28.7 µM
same,GI50,UACC-257 melanoma,2.16 µM
same,TGI,UACC-257 melanoma,11.4 µM
same,TGI,KM12 colon,10.5 µM
same,GI50,HS 578T breast,0.283 µM
same,TGI,HS 578T breast,3.11 µM
same,GI50,HOP-92 NSCLC,0.206 µM
same,TGI,HOP-92 NSCLC,1.34 µM
same,GI50,EKVX NSCLC,0.704 µM
same,TGI,EKVX NSCLC,17.8 µM
same,GI50,HT29 colon,0.475 µM
same,TGI,HT29 colon,2.39 µM
same,GI50,SF-539 CNS,0.143 µM
same,TGI,SF-539 CNS,0.755 µM
same,GI50,NCI-H460 lung,0.534 µM
same,TGI,NCI-H460 lung,16.9 µM
same,TGI,K-562 leukemia,1.36 µM
same,GI50,SK-OV-3 ovarian,4.64 µM
same,TGI,SK-OV-3 ovarian,19.7 µM
same,GI50,MALME-3M melanoma,0.353 µM
same,TGI,MALME-3M melanoma,1.71 µM
same,GI50,SF-295 CNS,0.918 µM
same,TGI,SF-295 CNS,19 µM
same,GI50,CCRF-CEM leukemia,0.0642 µM
same,TGI,CCRF-CEM leukemia,> 21.2 µM
same,GI50,HCC-2998 colon,2.34 µM
same,TGI,HCC-2998 colon,20.1 µM
same,GI50,NCI-H522 lung,1.4 µM
same,TGI,NCI-H522 lung,21.9 µM
same,GI50,SR leukemia,0.723 µM
same,TGI,SR leukemia,9.4 µM
same,GI50,A549 NSCLC,1.16 µM
same,TGI,A549 NSCLC,22.7 µM
same,GI50,SK-MEL-5 melanoma,1.89 µM
same,TGI,SK-MEL-5 melanoma,7.25 µM
same,GI50,HL-60(TB) leukemia,0.521 µM
same,TGI,HL-60(TB) leukemia,16.3 µM
same,GI50,UO-31 renal,2.2 µM
same,TGI,UO-31 renal,13.7 µM
same,GI50,SNB-19 CNS,6.37 µM
same,TGI,SNB-19 CNS,21.7 µM
same,GI50,PC-3 prostate,1.52 µM
same,TGI,PC-3 prostate,19.2 µM
same,GI50,HCT-15 colon,0.357 µM
same,TGI,HCT-15 colon,1.66 µM
same,GI50,MOLT-4 leukemia,0.316 µM
same,TGI,MOLT-4 leukemia,3.35 µM
same,GI50,SN12C renal,0.643 µM
same,TGI,SN12C renal,11.7 µM
